Test results taken from patent publication US20260083704A1, “LXR MODULATORS WITH BICYCLIC CORE MOIETY FOR TREATING DYSLIPIDEMIAS” (OrsoBio, Inc., priority 2022, published 2026).

Key:
[1] = Pharmacokinetics in mice after single oral dosing (blood/plasma and liver exposure); type: in vivo; details: 20 mg/kg single oral dose
Description: The pharmacokinetics of the compounds was assessed in mice after single dosing and oral administrations. Blood/plasma and liver exposure was measured via LC-MS.
The study design was as follows: • Animals: C57/bl6/J (Janvier) males • Diet: standard rodent chow • Dose: 20 mg/kg • Animal handling: animals were withdrawn from food at least 12 h before administration • Design: single dose oral administration, n=3 animals per group • Sacrifice: at stated time point (4, 12 or 24 h) after administration • Bioanalytics: LC-MS of liver and blood/plasma samples

[2] = molecular target: T1, LXRα (Homo sapiens, UniProt Q13133); assay: LXR Gal4 reporter transient transfection assay (mammalian two-hybrid, HEK293), LXRα; type: cell-based; set-up: expressed in transfected cells; host or cells: HEK293; details: full length (FL) LXRα, HEK293; read-out: FL-M2H Gal4α
T1 sequence (Q13133 1-447): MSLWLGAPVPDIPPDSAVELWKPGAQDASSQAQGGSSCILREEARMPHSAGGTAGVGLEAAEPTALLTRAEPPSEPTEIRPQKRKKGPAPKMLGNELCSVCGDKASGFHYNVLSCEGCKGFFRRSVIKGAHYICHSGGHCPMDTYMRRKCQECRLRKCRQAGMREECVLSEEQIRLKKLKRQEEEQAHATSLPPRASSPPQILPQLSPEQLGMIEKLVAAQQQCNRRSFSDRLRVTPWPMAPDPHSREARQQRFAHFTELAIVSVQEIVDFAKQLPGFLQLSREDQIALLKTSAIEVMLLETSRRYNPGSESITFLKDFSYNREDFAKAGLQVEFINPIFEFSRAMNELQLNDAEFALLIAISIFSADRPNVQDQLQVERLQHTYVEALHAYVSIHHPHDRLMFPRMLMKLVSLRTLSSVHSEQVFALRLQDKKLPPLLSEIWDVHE
Description: (§1) LXRα and LXRβ activity status was determined via detection of interaction with coactivator and corepressor proteins in mammalian two-hybrid experiments (M2H). For this, via transient transfection the full length (FL) proteins of LXRα (amino acids 1-447; NP005684; SEQ ID NO:1) or LXRβ-(amino acids 1-461; NP009052; SEQ ID NO:2) or the ligand-binding domains (LBD) of LXRα (amino acids 155-447 SEQ ID NO:3) or LXRβ (amino acids 156-461; SEQ ID NO:4) were expressed from pCMV-AD (Stratagene) as fusions to the transcriptional activation domain of NFkB. As cofactors, domains of either the steroid receptor coactivator 1 (SRC1; amino acids 552-887; SEQ ID NO:5) or of the corepressor NCoR (amino acids 1906-2312; NP006302; SEQ ID NO:6) were expressed as fusions to the DNA binding domain of the yeast transcription factor GAL4 (from pCMV-BD; Stratagene). Interaction was monitored via activation of a coexpressed Firefly Luciferase Reporter gene under control of a promoter containing repetitive GAL4 response elements (vector pFRLuc; Stratagene). Transfection efficiency was controlled via cotransfection of constitutively active pRL-CMV Renilla reniformis luciferase reporter (Promega). HEK293 cells were grown in minimum essential medium (MEM) with 2 mM L-glutamine and Earle's balanced salt solution supplemented with 8.3% fetal bovine serum, 0.1 mM non-essential amino acids, 1 mM sodium pyruvate, at 37° C. in 5% CO2. 3.5×10^4 cells/well were plated in 96-well cell culture plates in growth medium supplemented with 8.3% fetal bovine serum for 16-20 h to ˜90% confluency. For transfection, medium was taken off and LXR and cofactor expressing plasmids as well as the reporter plasmids are added in 30 μL OPTIMEM/well including polyethylene-imine (PEI) as vehicle. Typical amounts of plasmids transfected/well: pCMV-AD-LXR (5 ng), pCMV-BD-cofactor (5 ng), pFR-Luc (100 ng), pRL-CMV (0.5 ng). Compound stocks were prepared in DMSO, prediluted in MEM to a total volume of 120 μL, and added 4 h after addition of the transfection mixture (final vehicle concentration not exceeding 0.2%). Cells were incubated for additional 16 h, lysed for 10 min in 1×Passive Lysis Buffer (Promega) and Firefly and Renilla luciferase activities were measured sequentially in the same cell extract using buffers containing D-luciferine and coelenterazine, respectively. Measurements of luminescence were done in a BMG-luminometer.
(§2) The potencies of Compound 21/3 and its analog, Compound pre-6/3, against LXRα and LXRβ were evaluated in biochemical binding assays, cellular mammalian two-hybrid (M2H) interaction assays evaluating nuclear receptor co-repressor (NCOR) recruitment, and cellular reporter assays evaluating transcriptional activity (Table 5).

[3] = molecular target: T2, LXRα (Homo sapiens, UniProt Q13133); assay: as above; type: cell-based; details: HEK293, NCOR recruitment, mean ± SD; read-out: HEK293 LXRα/NCOR recruitment (M2H) EC50
T2 construct: full length (FL) proteins of LXRα (amino acids 1-447); NP005684
Description: as §1, §2

[4] = test system: ABCA1 reporter in HT-29; assay: HT-29 ABCA1 reporter assay; type: cell-based; details: Homo sapiens; HT-29, mean ± SD
Description: as §2

[5] = molecular target: T3, LXRβ (Homo sapiens, UniProt P55055); assay: Biochemical binding assay LXRβ; details: mean ± SD
T3 sequence (P55055 1-460): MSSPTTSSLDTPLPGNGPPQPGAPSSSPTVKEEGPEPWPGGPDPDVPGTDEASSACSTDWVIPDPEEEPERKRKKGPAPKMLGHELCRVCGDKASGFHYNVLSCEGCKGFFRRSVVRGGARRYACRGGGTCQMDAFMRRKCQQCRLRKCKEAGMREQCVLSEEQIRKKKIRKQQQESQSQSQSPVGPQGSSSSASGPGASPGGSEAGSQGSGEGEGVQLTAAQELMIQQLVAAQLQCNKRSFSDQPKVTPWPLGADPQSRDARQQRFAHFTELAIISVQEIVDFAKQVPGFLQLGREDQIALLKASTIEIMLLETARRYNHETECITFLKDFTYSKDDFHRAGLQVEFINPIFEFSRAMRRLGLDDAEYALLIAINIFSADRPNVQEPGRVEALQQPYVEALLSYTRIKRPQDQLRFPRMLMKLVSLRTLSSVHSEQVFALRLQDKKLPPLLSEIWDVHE
Description: as §2

[6] = test system: SREBP1c reporter in HepG2; assay: HepG2 SREBP1c reporter assay; type: cell-based; details: Homo sapiens; HepG2, mean ± SD
Description: as §2

[7] = molecular target: T1, LXRα; assay: Biochemical binding assay LXRα; details: mean ± SD; read-out: LXα binding EC50
Description: as §2

In the case of Cc1ccc(S(=O)(=O)n2c(-c3cccc(-c4ccc(C(=O)O)cc4Cl)c3)c(-c3ccsc3C#N)c3cc(F)ccc32)cc1 [3/48], the liver exposure ([1]; time point 12 h) is reported as “A (<300 nM)” and the “blood/plasma exposure (below LLOQ)” value ([1]; time point 12 h, number is the LLOQ) is reported as “(1.2 ng/mL)”.
In the case of Cc1ccc(S(=O)(=O)n2c(-c3cccc(-c4ccc(C(=O)O)cc4)c3)c(-c3ccsc3C#N)c3cc(F)ccc32)cc1 [5/3], the blood/plasma exposure ([1]; time point 4 h) is reported as “C (100 nM to <300 nM)”, the liver exposure ([1]; time point 4 h) is reported as “C (1 μM to ≤3 μM)” and the liver/blood ratio ([1]; time point 4 h) is reported as “C (10 to ≤30)”.
Molecule N#Cc1sccc1-c1c(-c2cccc(-c3ccc(C(=O)O)cc3Cl)c2)n(S(=O)(=O)c2ccc(C(F)F)cc2)c2ccc(F)cc12 [11/17] has an EC50 [2] of less than 100 nM.
For N#Cc1cccc(C#N)c1-c1c(-c2cccc([C@H]3CC[C@H](C(=O)O)CC3)c2)n(S(=O)(=O)c2ccc(C(F)F)cc2)c2ccc(F)cc12 [11/62], the EC50 [2] was less than 100 nM.
With Cc1ccc(S(=O)(=O)n2c(-c3cccc(-c4ccc(C(=O)O)cc4)c3)c(-c3ccsc3C#N)c3cc(F)ccc32)cc1C [23/2] the blood/plasma exposure ([1]; time point 4 h) was “B (300 nM to ≤1 μM)”, the liver exposure ([1]; time point 4 h) was “D (>3 μM)” and the liver/blood ratio ([1]; time point 4 h) was “C (10 to ≤30)”.
Molecule CS(=O)(=O)NC(=O)c1ccc(-c2cccc(-c3c(-c4c(C#N)cccc4C#N)c4cc(F)ccc4n3S(=O)(=O)c3ccc(C(F)F)cc3)c2)c(Cl)c1 [32/5] has an EC50 [2] of less than 100 nM.
With N#Cc1cccc(C#N)c1-c1c(-c2cccc(-c3ccc(C(=O)NCC(=O)O)cc3Cl)c2)n(S(=O)(=O)c2ccc(C(F)F)cc2)c2ccc(F)cc12 [Compound 21/3] the EC50 [3] was 8 ± 7 nM, the IC50 [4] was 15 ± 4 nM and the EC50 [5] was 15 ± 3 nM. The IC50 [6] was 7 ± 5 nM and the EC50 [7] was 7 ± 16 nM.
Molecule N#Cc1cccc(C#N)c1-c1c(-c2cccc(-c3ccc(C(=O)O)cc3Cl)c2)n(S(=O)(=O)c2ccc(C(F)F)cc2)c2ccc(F)cc12 [pre-6/3] has an EC50 [3] of 0.2 ± 0.1 nM, an IC50 [4] of 0.7 ± 0.1 nM and an EC50 [5] of 17 ± 7 nM. For the same molecule, the IC50 [6] was 0.2 ± 0.1 nM and the EC50 [7] was 14 ± 5 nM.
